Laboratory results from patent US8404723B2, “3-cyano 5-thiazaheteroaryl-dihydropyridine and the use thereof for the treatment of cardiovascular diseases” (Bayer Intellectual Property GmbH, priority 2006, dated 2013).

Target: T1, human mineralocorticoid receptor (MR) (Homo sapiens, UniProt P08235)
T1 construct: expressed in transfected cells
T1 sequence (P08235 734-984 limits assumed): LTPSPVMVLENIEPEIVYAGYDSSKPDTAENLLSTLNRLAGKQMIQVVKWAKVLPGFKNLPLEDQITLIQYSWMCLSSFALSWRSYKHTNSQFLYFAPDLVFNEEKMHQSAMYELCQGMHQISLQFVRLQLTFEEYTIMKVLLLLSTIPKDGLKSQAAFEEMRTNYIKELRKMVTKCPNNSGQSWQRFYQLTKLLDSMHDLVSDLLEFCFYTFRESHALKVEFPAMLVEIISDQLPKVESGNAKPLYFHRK
Test: Cellular in vitro assay to determine the inhibitory MR activity (GAL4-MR chimera luciferase reporter in CHO K1 cells)
Type: cell-based
Settings: aldosterone as agonist
Source text: 1. Cellular In Vitro Assay to Determine the Inhibitory MR Activity and MR Selectivity Compared with Other Steroid Hormone Receptors
Antagonists of the human mineralocorticoid receptor (MR) are identified, and the activity of the compounds described herein is quantified with the aid of a recombinant cell line. The cell is originally derived from a hamster ovary epithelial cell (Chinese Hamster Ovary, CHO K1, ATCC: American Type Culture Collection, Va. 20108, USA).
An established chimera system in which the ligand-binding domains of human steroid hormone receptors are fused to the DNA-binding domain of the yeast transcription factor GAL4 is used in this CHO K1 cell line. The GAL4-steroid hormone receptor chimeras produced in this way are cotransfected and stably expressed with a reporter construct in the CHO cells.
To generate the GAL4-steroid hormone receptor chimeras, the GAL4 DNA binding domain (amino acids 1-147) from the vector pFC2-dbd (from Stratagene) is cloned with the PCR-amplified ligand-binding domains of the mineralocorticoid receptor (MR, amino acids 734-985), of the glucocorticoid receptor (GR, amino acids 443-777), of the progesterone receptor (PR, amino acids 680-933) and of the androgen receptor (AR, amino acids 667-919) into the vector pIRES2 (from Clontech). The reporter construct, which comprises five copies of the GAL4 binding site upstream of a thymidine kinase promoter, leads to expression of firefly-luciferase (Photinus pyralis) after activation and binding of the GAL4-steroid hormone receptor chimeras by the respective specific agonists aldosterone (MR), dexamethasone (GR), progesterone (PR) and dihydrotestosterone (AR).
The MR, GR, PR and AR cells are plated out in medium (Optimem, 2.5% FCS, 2 mM glutamine, 10 mM HEPES) in 96- (or 384- or 1536-) well microtiter plates on the day before the assay and are kept in a cell incubator (96% humidity, 5% v/v CO2, 37° C.). On the day of the assay, the substances to be tested are taken up in the abovementioned medium and added to the cells. About 10 to 30 minutes after addition of the test substances, the respective specific agonists of the steroid hormone receptors are added. After a further incubation time of 5 to 6 hours, the luciferase activity is measured with the aid of a video camera. The measured relative light units as a function of the substance concentration result in a sigmoidal stimulation curve. The IC50 values are calculated with the aid of the GraphPad PRISM computer program (Version 3.02).

| IC50 [µM] | Compound |
| --- | --- |
| 0.094 | COc1cc(C#N)ccc1C1C(C#N)=C(C)NC(C)=C1c1nc(C)cs1 (stereo not shown) [Example 1, 4-(4-Cyano-2-methoxyphenyl)-2,6-dimethyl-5-(4-methyl-1,3-thiazol-2-yl)-1,4-dihydropyridine-3-carbonitrile] |
| 0.01 | COc1cc(C#N)ccc1C1C(C#N)=C(C(F)(F)F)NC(C)=C1c1nc(C)cs1 (stereo not shown) [Example 3, 4-(4-Cyano-2-methoxyphenyl)-6-methyl-5-(4-methyl-1,3-thiazol-2-yl)-2-(trifluoromethyl)-1,4-dihydropyridine-3-carbonitrile] |
| 0.095 | CC1=C(C#N)C(c2cccc3c(=O)cc(C)oc23)C(c2nc(C)cs2)=C(C)N1 (stereo not shown) [Example 4, 2,6-Dimethyl-4-(2-methyl-4-oxo-4H-chromen-8-yl)-5-(4-methyl-1,3-thiazol-2-yl)-1,4-dihydro-pyridine-3-carbonitrile] |
| 0.074 | COc1cc(C#N)ccc1C1C(C#N)=C(C)NC(C)=C1c1nc2ccccc2s1 (stereo not shown) [Example 12, 5-(1,3-Benzothiazol-2-yl)-4-(4-cyano-2-methoxyphenyl)-2,6-dimethyl-1,4-dihydropyridine-3-carbonitrile] |
| 0.278 | CC1=C(C#N)C(c2cccc3ncc(C)cc23)C(c2nc(C)cs2)=C(C)N1 (stereo not shown) [Example 18, 2,6-Dimethyl-4-(3-methylquinolin-5-yl)-5-(4-methyl-1,3-thiazol-2-yl)-1,4-dihydropyridine-3-carbonitrile] |
| 0.018 | CCc1cnc(C2=C(C)NC(C)=C(C#N)C2c2ccc(C#N)cc2OC)s1 (stereo not shown) [Example 23, 4-(4-Cyano-2-methoxyphenyl)-5-(5-ethyl-1,3-thiazol-2-yl)-2,6-dimethyl-1,4-dihydropyridine-3-carbonitrile] |
| 0.32 | COc1cc(C#N)ccc1C1C(C#N)=C(C)NC(C)=C1c1nnc(C)s1 (stereo not shown) [Example 24, 4-(4-Cyano-2-methoxyphenyl)-2,6-dimethyl-5-(5-methyl-1,3,4-thiadiazol-2-yl)-1,4-dihydropyridine-3-carbonitrile] |
